Experimental data: patent US20070129344A1, “Bicyclic 6-alkylidene-penem beta-lactamase inhibitors and beta-lactam antibiotic combination: a broad spectrum antibiotic” (priority 2005, published 2007)
Like-named read-outs stand apart in the source and are kept apart here.

What was measured:
[1] = test system: E. coli ATCC 25922 (none); test: MIC microbroth dilution; β-lactamase class none; format: cell-based; conditions: Escherichia coli, ATCC25922, E. coli ATCC 25922, Cefepime alone, read-out: MIC
Protocol: (§1) The in vitro activities of the antibiotics were determined by the microbroth dilution method as recommended by the National Committee for Clinical Laboratory Standards (NCCLS). (NCCLS. 2000. Methods for Dilution Antimicrobial Susceptibility Tests for Bacteria That Grow Aerobically; Approved Standards: M7-A5, vol. 19. National Committee for Clinical Laboratory Standards, Villanova, Pa.). Mueller-Hinton II broth (MHBII)(BBL Cockeysville, Md.), was used for the testing procedure. […]. The plates were incubated for 18-22 hours at 35° C. in ambient air.

E. coli GC 2804 (imp) = test: MIC microbroth dilution; β-lactamase class none; format: cell-based; conditions: Escherichia coli, Cefepime alone
Protocol: as §1

E. coli GC 2844 (none) = test: MIC microbroth dilution; β-lactamase class none; format: cell-based; conditions: Cefepime alone
Protocol: as §1

E. coli GC 2847 (TEM-1) = test: MIC microbroth dilution; β-lactamase class A; format: cell-based; conditions: Escherichia coli, Cefepime alone, read-out: MIC
Protocol: as §1

K. pn GC 1510 (TEM-10) = test: MIC microbroth dilution; β-lactamase class A (ESBL); format: cell-based, K. pneumoniae; conditions: Klebsiella pneumoniae, Cefepime alone, read-out: MIC
Protocol: as §1

K. pn GC 1516 (TEM-26) = test: as above; format: cell-based, K. pneumoniae; conditions: Cefepime alone
Protocol: as §1

K. pn GC 1830 (SHV-2) = test: as above; format: cell-based, K. pneumoniae; conditions: Klebsiella pneumoniae, Cefepime alone, read-out: MIC
Protocol: as §1

K. pn GC 1832 (SHV-4) = test: as above; format: cell-based, K. pneumoniae; conditions: Cefepime alone
Protocol: as §1

[2] = test system: K. pn GC 1507 (TEM-9 + SHV-1); test: MIC microbroth dilution; β-lactamase class A, A (ESBL); format: cell-based, K. pneumoniae; conditions: Cefepime alone
Protocol: as §1

[3] = test system: K. pn GC 1554 (TEM-1 + TEM-26 + SHV-1); test: as above; format: cell-based, K. pneumoniae; conditions: Klebsiella pneumoniae, Cefepime alone, read-out: MIC
Protocol: as §1

[4] = test system: K. pn GC 1963 (TEM-10 + SHV-1 + SHV-ESBL); test: as above; format: cell-based, K. pneumoniae; conditions: Cefepime alone
Protocol: as §1

[5] = test system: K. pn GC 2006 (TEM-10 + SHV-1); test: as above; format: cell-based, K. pneumoniae; conditions: Klebsiella pneumoniae, Cefepime alone, read-out: MIC
Protocol: as §1

[6] = test system: K. pn GC 3057 (CAZ-R; P/T-R); test: as above; format: cell-based, K. pneumoniae; conditions: Cefepime alone
Protocol: as §1

[7] = test system: K. pn GC 6488 (TEM-1 + SHV-5 + SHV-7); test: as above; format: cell-based, K. pneumoniae; conditions: Klebsiella pneumoniae, Cefepime alone, read-out: MIC
Protocol: as §1

[8] = test system: K. pn GC 6494 (TEM-1 + SHV-5); test: as above; format: cell-based, K. pneumoniae; conditions: Klebsiella pneumoniae, Cefepime alone, read-out: MIC
Protocol: as §1

[9] = test system: K. pn GC 6651 (TEM-1 + SHV-1 + SHV-5); test: as above; format: cell-based, K. pneumoniae; conditions: Klebsiella pneumoniae, Cefepime alone, read-out: MIC
Protocol: as §1

[10] = test system: K. pn GC 6657 (TEM-1 + SHV-27); test: as above; format: cell-based, K. pneumoniae; conditions: Cefepime alone
Protocol: as §1

[11] = Klebsiella pneumoniae, control of Compound 1 test, read-out: MIC

Measured: MIC

CO/N=C(\C(=O)N[C@@H]1C(=O)N2C(C(=O)[O-])=C(C[N+]3(C)CCCC3)CS[C@H]12)c1csc(N)n1 [Cefepime, reference compound]
4 µg/mL: [7]; control of Compound 2 test | [8]; control of Compound 1 test | [9]; control of Compound 2 test
>16 µg/mL: K. pn GC 1516 (TEM-26); control of Compound 2 test | [4]; control of Compound 2 test | [6]; control of Compound 2 test
8 µg/mL: [2]; control of Compound 2 test | [2]; [11] | [3]; control of Compound 2 test | [5]; control of Compound 2 test | [7]; control of Compound 1 test | [9]; control of Compound 1 test
< 0.015 µg/mL: E. coli GC 2804 (imp); control of Compound 2 test
0.03 µg/mL: [1]; control of Compound 1 test | E. coli GC 2804 (imp); control of Compound 1 test
0.06 µg/mL: [1]; control of Compound 2 test | E. coli GC 2844 (none); control of Compound 2 test | E. coli GC 2844 (none); Escherichia coli, control of Compound 1 test, read-out: MIC | E. coli GC 2847 (TEM-1); control of Compound 2 test
0.5 µg/mL: K. pn GC 1510 (TEM-10); control of Compound 1 test | K. pn GC 1830 (SHV-2); control of Compound 2 test
> 16 µg/mL: K. pn GC 1516 (TEM-26); [11] | [3]; control of Compound 1 test | [4]; [11] | [5]; control of Compound 1 test | [6]; [11]
2 µg/mL: K. pn GC 1510 (TEM-10); control of Compound 2 test | K. pn GC 1832 (SHV-4); control of Compound 2 test | K. pn GC 1832 (SHV-4); [11] | [8]; control of Compound 2 test
1 µg/mL: K. pn GC 1830 (SHV-2); control of Compound 1 test
0.12 µg/mL: E. coli GC 2847 (TEM-1); control of Compound 1 test | [10]; control of Compound 2 test | [10]; [11]
